Reference: PMC10892120, “Design, Synthesis and Biological Assessment of N′-(2-Oxoindolin-3-ylidene)-6-methylimidazo[2,1-b]thiazole-5-carbohydrazides as Potential Anti-Proliferative Agents toward MCF-7 Breast Cancer” (Pharmaceuticals, 2024)

What was measured:
Caspase-8 = test: RT-PCR gene expression in treated MCF-7 cells: caspase 8; assay type: cell-based; conditions: treated MCF-7 cells vs untreated control MCF-7 (=1)
Experimental: (§1) The gene expression levels of apoptosis genes in MCF-7 cells were measured using RT-PCR to validate the apoptosis-inducing behaviors of the potent lead compound 6i in MCF-7 cells.
(§2) The gene expression levels of apoptosis genes were evaluated in MCF-7 cells using the following approaches in the Supplementary Data, page 43.
(§3) Inhibitor solution of each well labeled as “Test Inhibitor”. For the “Positive Control" and “Blank”, add 5 μl of the same solution without inhibitor (Inhibitor buffer). Prepare 3 ml of 1x Kinase Buffer 1 by mixing 600 μl of 5x Kinase Buffer 1 with 2400 μl water. 3 ml of 1x Kinase Buffer 1 is sufficient for 100 reactions. To the wells designated as "Blank", add 20 μl of 1x Kinase Buffer 1.
(§4) Thaw VEGFR2 enzyme on ice. Upon first thaw, briefly spin tube containing enzyme to recover full content of the tube. Calculate the amount of VEGFR2 required for the assay and dilute enzyme to 1 ng/μl with 1x Kinase Buffer 1. Store remaining undiluted enzyme in aliquots at -80°C. Note:
(§5) VEGFR2 enzyme is sensitive to freeze/thaw cycles. Avoid multiple freeze/thaw cycles. […]
(§6) use thawed aliquots or diluted enzyme. […]
(§7) thoroughly, and then centrifuge at 4°C to collect contents to the bottom of the tube. […] Preparation of a reaction cocktail is crucial in quantitative PCR applications to reduce pipetting errors and maximize assay precision and accuracy. […]

VEGFR-2 = VEGFR-2 (Homo sapiens, UniProt P35968); test: In vitro VEGFR-2 kinase inhibition assay; assay type: biochemical; conditions: mean ± SD of three experiments
MCF-7 [1] = test: Apoptotic assay, Annexin V/PI analysis in MCF-7; assay type: cell-based; conditions: MCF-7, Annexin V/PI, % given only in Figure 5
Experimental: In comparison to the control cells, the apoptotic assay employing Annexin V/PI analysis for compound 6i generated a substantial amount of early and late apoptosis in MCF-7. Compound 6i induced early apoptosis in MCF-7 at rate of 22.05, compared with the control MCF-7 (0.43) (Table 6 and Figure 5).
(§8) These were performed using the approach described in the Supplementary Data, page 44 [46]. […]
(§9) thoroughly, and then centrifuge at 4°C to collect contents to the bottom of the tube. Chill on ice before using. Centrifuge again briefly at 4°C if needed. Preparation of a reaction cocktail is crucial in quantitative PCR applications to reduce pipetting errors and maximize assay precision and accuracy. Assemble the reaction cocktail with all required components except sample template (total RNA) and dispense equal aliquots into each reaction tube. Add target sample to each reaction as the final step. Addition of sample as 5–10 μl volumes will improve assay precision. Replicate samples should be assembled as a master mix with a single addition of sample template.
(§10) Cell cycle analysis and apoptosis
(§11) Transfer the previously prepared cells from 4 °C to the bench-top and equilibrate to room temperature. Gently re-suspend cells by inverting the tube or by gentleup and down pipetting.
(§12) There may be visible thin salt crystals in the tube but this will not affect the sedimentation of the cells in the next step. Pellet the cells at 500 x g for 5 minutes. Carefully aspirate the supernatant without disrupting the pellet. It is better to incompletely remove the supernatant than to accidently aspirate part of the pellet and lose cells. Wash the cells by gently resuspending in 1 mL 1X PBS.
(§13) Again, pellet the cells at 500 x g for 5 minutes and carefully remove the supernatant. Gently resuspend the cell pellet in 200 μL 1X Propidium Iodide + RNase Staining Solution. Then ensure that the cells are fully resuspended. Incubate at 37 °C in the dark for 20 – 30 minutes. Place tubes on ice (still in the dark) and prepare for flow cytometry analysis. Gently resuspend cells that settled during the incubation by pipetting up and down. If desired, pass cells through an appropriate filter (not provided) to remove cell aggregates. Run samples on flow cytometer: Set appropriate FSC vs. SSC gates to exclude debris and cell aggregates. Collect Propidium iodide fluorescence in FL2.
The Protein Data Bank (http://www.rcsb.org) was utilized to obtain the 3D structures of […]
was used to conduct docking studies on established analogues with the VEGFR-2 active site. This program was run with a searching grid that was stretched across ligand molecules, with box […]
parameters set to default. The highest scoring posit ion for every compound was chosen after docking it into the crystal structure. […]

MCF-7 [2] = test: Cell cycle analysis (propidium iodide flow cytometry) in MCF-7; assay type: cell-based; conditions: MCF-7 cell cycle distribution
Experimental: Compound 6i arrested cells in the G2/M phase with %G2/M = 27.07, compared with %G2/M = 11.31 for the control MCF-7 (Table 5 and Figure 4).
as §8, §9, §10, §11, §12
as §13, with “Run samples on flow cytometer: Set appropriate FSC vs. SSC gates to exclude debris and cell aggregates.” left out, “FL2. […]” for “FL2.”

Bcl-2 = test: RT-PCR gene expression in treated MCF-7 cells: Bcl-2; assay type: cell-based; conditions: treated MCF-7 cells vs untreated control MCF-7 (=1)
Experimental: as §1, §2, §3, §4, §5, §6, §7

Caspase-9 = test: RT-PCR gene expression in treated MCF-7 cells: caspase 9; assay type: cell-based; conditions: treated MCF-7 cells vs untreated control MCF-7 (=1)
Experimental: as §1, §2, §3, §4, §5, §6, §7

Sequence of VEGFR-2 (P35968 20-1356): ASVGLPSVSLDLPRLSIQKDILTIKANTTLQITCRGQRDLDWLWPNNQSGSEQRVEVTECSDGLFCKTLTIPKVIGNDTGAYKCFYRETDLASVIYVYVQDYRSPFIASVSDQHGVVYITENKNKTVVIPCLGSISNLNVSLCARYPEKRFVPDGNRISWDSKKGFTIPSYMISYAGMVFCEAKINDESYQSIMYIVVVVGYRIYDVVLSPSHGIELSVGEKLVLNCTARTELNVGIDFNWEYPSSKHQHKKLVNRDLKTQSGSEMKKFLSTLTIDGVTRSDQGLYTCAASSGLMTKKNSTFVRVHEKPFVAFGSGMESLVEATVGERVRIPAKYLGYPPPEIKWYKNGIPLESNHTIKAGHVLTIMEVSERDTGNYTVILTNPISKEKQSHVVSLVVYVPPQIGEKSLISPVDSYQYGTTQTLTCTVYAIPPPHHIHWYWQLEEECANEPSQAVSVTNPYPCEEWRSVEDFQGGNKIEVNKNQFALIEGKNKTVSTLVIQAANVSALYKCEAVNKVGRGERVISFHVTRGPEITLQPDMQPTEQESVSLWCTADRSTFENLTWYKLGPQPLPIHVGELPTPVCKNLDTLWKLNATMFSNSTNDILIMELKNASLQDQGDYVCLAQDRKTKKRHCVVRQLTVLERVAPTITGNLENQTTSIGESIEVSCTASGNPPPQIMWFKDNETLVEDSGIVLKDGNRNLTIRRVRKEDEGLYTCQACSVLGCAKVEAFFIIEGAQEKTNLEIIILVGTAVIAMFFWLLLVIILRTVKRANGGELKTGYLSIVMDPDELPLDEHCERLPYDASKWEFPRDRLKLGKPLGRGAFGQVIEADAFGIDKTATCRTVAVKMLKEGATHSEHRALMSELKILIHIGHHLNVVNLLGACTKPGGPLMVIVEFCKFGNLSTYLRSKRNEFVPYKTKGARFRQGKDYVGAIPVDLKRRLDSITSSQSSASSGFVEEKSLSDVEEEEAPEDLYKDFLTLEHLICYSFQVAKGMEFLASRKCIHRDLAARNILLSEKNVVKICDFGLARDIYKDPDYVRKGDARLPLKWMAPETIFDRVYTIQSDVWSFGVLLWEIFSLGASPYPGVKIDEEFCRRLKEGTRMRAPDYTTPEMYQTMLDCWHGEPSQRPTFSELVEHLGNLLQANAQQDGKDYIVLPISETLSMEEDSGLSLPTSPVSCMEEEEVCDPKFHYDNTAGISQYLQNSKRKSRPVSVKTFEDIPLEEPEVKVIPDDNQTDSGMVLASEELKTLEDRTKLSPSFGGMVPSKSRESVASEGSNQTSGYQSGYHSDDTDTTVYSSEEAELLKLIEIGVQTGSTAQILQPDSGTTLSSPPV

SMILES: CCCCN1C(=O)C(=NNC(=O)c2c(C)nc3sccn23)c2ccccc21 [Compound 6i, N′-(1-Butyl-2-oxoindolin-3-ylidene)-6-methylimidazo[2,1-b]thiazole-5-carbohydrazide]
- RT-PCR Fold Change Caspase-8 (Caspase-8): 2.727 fold
- IC50 (VEGFR-2): 330 ± 10 nM
- Apoptosis Late (MCF-7 [1]; control 0.11): 7.61%
- Apoptosis Early (MCF-7 [1]; control 0.43): 22.05%
- Necrosis (MCF-7 [1]; control 1.37): 3.15%
- Apoptosis Total (MCF-7 [1]; control 1.91): 32.81%
- %G2/M (MCF-7 [2]; control 11.31): 27.07%
- %S (MCF-7 [2]; control 23.96): 19.27%
- %G0–G1 (MCF-7 [2]; control 64.73): 53.66%
- RT-PCR Fold Change Bcl-2 (Bcl-2): 0.359 fold
- RT-PCR Fold Change Caspase-9 (Caspase-9): 4.947 fold
